# Data taken from ChEMBL document CHEMBL1201862, “PubChem BioAssay data set” (2004).
# Calls of active or inactive are those of the source.
# Tests used:
# [1] = target: T1, Oxysterols receptor LXR-beta (Homo sapiens, UniProt P55055); assay type: functional, cell-based;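 further: Cell-based luminescence dose-response assay of agonist activity at LXR, run as a confirmatory counterscreen to a daf-12 agonist screen; HEK293 cells with Gal4-LXR fusion and GAL4-driven luciferase reporter; agonist potency from rising luciferase signal of a Gal4-LXR reporter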
# T1 sequence (P55055 whole entry): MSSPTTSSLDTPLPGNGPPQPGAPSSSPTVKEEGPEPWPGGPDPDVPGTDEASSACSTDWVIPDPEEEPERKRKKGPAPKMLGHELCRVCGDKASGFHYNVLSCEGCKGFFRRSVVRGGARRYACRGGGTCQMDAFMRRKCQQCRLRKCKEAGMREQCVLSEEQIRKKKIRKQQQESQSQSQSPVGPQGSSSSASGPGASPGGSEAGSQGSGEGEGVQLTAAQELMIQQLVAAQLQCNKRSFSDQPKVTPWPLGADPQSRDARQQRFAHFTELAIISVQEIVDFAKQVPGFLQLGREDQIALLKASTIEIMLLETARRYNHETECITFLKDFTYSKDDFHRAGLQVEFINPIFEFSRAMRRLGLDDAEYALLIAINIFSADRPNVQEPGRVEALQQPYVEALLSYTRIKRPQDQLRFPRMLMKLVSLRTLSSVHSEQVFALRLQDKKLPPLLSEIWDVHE
# cells [2] = assay: cells
# [3] = target: T2, DNA repair protein RAD52 homolog (Homo sapiens, UniProt P43351); assay type: functional, biochemical
# T2 sequence (P43351 whole entry): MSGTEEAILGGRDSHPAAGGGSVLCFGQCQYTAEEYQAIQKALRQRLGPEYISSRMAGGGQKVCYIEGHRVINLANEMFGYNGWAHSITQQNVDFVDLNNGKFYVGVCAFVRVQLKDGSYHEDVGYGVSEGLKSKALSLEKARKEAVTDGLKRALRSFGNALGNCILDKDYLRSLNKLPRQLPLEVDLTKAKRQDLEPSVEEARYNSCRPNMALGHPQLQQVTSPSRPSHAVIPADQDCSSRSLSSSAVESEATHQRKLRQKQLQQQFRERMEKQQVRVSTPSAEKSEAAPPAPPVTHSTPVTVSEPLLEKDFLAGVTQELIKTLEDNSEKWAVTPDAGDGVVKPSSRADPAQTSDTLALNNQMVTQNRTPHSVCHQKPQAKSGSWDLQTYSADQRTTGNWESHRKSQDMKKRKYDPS
# [4] = Luminescence Cell-Based Dose Response to Identify Activators of 5'UTR Stem-Loop Driven Prion Protein mRNA Translation in H4-C Neuroglioblastoma Cells. [Related pubchem assays: 1829 (Project Summary), 1814 (Primary HTS)]; assay type: functional
# [5] = Luminescence Cell-Based Dose Response HTS to Identify Activators of Luciferase Translation or Activity in H4 […] Cells. [Related pubchem assays: 1829 (Project Summary), 1814 (Primary HTS)]; assay type: functional
# H4 = assay: Luminescence Cell-Based Dose Response HTS to Identify Activators of 5'UTR Stem-Loop Driven Prion Protein mRNA Translation in H4 Neuroglioblastoma Cells. [Related pubchem assays: 1829 (Project Summary), 1814 (Primary HTS)]; assay type: functional; conditions: Homo sapiens
# [6] = Luminescence Cell-Based Dose Response to Identify Activators of Luciferase Translation or Activity in H4-C Neuroglioblastoma Cells. [Related pubchem assays: 1829 (Project Summary), 1814 (Primary HTS)]; assay type: functional
# [7] = Luminescence Cell-Based Dose Confirmation to Identify Activators of 5'UTR Stem-Loop Driven Alpha-Synuclein mRNA Translation in H4 Neuroglioblastoma Cells. [Related pubchem assays: 1829 (Project Summary), 1814 (Primary HTS)]; assay type: functional
# Galanin receptor type 3 = target: T3, Galanin receptor type 3 (Homo sapiens, UniProt O60755); assay: Fluorescence-based cell-based primary high throughput dose response assay to identify antagonists of the Galanin Receptor 3 (GalR3).; assay type: functional
# T3 sequence (O60755 whole entry): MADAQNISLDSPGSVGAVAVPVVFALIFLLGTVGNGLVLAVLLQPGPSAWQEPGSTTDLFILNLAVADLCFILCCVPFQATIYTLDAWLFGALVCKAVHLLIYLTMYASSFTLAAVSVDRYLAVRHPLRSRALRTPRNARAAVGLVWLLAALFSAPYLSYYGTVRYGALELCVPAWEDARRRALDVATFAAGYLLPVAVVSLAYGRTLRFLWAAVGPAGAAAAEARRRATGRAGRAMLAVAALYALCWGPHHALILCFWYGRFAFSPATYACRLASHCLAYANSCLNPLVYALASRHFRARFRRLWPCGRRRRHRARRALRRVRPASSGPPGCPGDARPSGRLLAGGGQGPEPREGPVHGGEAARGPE
# cells [8] = assay type: functional, cell-based; conditions: HEK-CNG
# Paired box protein Pax-8 = Paired box protein Pax-8 (Homo sapiens, UniProt Q06710); assay: PAX8 transcriptional activity inhibition in RMG-I – RMG-I cells, luciferase, cherry-pick, dose response (AID 687027); assay type: functional, cell-based;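 further: luciferase reporter driven by Pax8 target thyroperoxidase promoter measured by SteadyGlo luminescence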
# Paired box protein Pax-8, sequence (Q06710 whole entry): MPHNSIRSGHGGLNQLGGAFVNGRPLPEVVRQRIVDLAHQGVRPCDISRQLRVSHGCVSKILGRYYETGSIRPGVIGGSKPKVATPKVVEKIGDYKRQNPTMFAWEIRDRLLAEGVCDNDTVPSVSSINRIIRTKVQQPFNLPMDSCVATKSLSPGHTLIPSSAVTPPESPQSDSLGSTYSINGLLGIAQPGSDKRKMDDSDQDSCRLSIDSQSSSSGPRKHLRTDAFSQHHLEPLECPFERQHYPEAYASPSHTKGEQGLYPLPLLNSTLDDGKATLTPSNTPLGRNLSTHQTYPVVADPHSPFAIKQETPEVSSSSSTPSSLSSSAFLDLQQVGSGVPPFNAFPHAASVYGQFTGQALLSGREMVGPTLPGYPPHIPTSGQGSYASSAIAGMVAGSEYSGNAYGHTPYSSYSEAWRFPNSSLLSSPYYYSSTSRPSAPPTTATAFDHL
# [9] = target: T4, Long-chain-fatty-acid--AMP ligase FadD28 (Mycobacterium tuberculosis, UniProt P9WQ59); assay: Fluorescence polarization aasay to screen for inhibitors that compete for the binding of FadD28 to a bisubstrate Measured in Biochemical System Using Plate Reader - 2147-01_Inhibitor_Dose_CherryPick_Activity.; assay type: functional, Mycobacterium tuberculosis H37Rv
# T4 sequence (P9WQ59 whole entry): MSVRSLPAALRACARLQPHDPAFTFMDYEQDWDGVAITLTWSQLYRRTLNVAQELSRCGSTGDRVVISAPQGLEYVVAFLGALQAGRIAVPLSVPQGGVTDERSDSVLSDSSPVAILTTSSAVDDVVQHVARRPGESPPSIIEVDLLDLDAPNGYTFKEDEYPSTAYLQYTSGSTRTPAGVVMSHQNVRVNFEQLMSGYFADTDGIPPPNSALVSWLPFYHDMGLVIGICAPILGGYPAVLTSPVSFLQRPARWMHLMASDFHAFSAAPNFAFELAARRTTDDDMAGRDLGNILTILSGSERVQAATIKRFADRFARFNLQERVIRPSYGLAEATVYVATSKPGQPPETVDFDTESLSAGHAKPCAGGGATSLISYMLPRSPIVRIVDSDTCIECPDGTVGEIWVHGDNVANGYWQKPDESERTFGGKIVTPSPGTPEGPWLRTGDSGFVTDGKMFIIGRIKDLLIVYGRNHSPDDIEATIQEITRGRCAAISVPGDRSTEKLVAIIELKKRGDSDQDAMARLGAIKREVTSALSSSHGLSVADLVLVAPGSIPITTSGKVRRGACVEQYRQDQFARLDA
# Fatty acid synthase [10] = target: T5, Fatty acid synthase (Homo sapiens, UniProt P49327); assay: inhibition of human FAS-TE enzyme activity – biochemical, endpoint fluorescence intensity, uHTS hits, dose response (AID 624327); assay type: functional;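 further: fluorescence from hydrolysis of an O-methyl fluorescein acyl ester substrate by the enzyme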
# T5 sequence (P49327 whole entry): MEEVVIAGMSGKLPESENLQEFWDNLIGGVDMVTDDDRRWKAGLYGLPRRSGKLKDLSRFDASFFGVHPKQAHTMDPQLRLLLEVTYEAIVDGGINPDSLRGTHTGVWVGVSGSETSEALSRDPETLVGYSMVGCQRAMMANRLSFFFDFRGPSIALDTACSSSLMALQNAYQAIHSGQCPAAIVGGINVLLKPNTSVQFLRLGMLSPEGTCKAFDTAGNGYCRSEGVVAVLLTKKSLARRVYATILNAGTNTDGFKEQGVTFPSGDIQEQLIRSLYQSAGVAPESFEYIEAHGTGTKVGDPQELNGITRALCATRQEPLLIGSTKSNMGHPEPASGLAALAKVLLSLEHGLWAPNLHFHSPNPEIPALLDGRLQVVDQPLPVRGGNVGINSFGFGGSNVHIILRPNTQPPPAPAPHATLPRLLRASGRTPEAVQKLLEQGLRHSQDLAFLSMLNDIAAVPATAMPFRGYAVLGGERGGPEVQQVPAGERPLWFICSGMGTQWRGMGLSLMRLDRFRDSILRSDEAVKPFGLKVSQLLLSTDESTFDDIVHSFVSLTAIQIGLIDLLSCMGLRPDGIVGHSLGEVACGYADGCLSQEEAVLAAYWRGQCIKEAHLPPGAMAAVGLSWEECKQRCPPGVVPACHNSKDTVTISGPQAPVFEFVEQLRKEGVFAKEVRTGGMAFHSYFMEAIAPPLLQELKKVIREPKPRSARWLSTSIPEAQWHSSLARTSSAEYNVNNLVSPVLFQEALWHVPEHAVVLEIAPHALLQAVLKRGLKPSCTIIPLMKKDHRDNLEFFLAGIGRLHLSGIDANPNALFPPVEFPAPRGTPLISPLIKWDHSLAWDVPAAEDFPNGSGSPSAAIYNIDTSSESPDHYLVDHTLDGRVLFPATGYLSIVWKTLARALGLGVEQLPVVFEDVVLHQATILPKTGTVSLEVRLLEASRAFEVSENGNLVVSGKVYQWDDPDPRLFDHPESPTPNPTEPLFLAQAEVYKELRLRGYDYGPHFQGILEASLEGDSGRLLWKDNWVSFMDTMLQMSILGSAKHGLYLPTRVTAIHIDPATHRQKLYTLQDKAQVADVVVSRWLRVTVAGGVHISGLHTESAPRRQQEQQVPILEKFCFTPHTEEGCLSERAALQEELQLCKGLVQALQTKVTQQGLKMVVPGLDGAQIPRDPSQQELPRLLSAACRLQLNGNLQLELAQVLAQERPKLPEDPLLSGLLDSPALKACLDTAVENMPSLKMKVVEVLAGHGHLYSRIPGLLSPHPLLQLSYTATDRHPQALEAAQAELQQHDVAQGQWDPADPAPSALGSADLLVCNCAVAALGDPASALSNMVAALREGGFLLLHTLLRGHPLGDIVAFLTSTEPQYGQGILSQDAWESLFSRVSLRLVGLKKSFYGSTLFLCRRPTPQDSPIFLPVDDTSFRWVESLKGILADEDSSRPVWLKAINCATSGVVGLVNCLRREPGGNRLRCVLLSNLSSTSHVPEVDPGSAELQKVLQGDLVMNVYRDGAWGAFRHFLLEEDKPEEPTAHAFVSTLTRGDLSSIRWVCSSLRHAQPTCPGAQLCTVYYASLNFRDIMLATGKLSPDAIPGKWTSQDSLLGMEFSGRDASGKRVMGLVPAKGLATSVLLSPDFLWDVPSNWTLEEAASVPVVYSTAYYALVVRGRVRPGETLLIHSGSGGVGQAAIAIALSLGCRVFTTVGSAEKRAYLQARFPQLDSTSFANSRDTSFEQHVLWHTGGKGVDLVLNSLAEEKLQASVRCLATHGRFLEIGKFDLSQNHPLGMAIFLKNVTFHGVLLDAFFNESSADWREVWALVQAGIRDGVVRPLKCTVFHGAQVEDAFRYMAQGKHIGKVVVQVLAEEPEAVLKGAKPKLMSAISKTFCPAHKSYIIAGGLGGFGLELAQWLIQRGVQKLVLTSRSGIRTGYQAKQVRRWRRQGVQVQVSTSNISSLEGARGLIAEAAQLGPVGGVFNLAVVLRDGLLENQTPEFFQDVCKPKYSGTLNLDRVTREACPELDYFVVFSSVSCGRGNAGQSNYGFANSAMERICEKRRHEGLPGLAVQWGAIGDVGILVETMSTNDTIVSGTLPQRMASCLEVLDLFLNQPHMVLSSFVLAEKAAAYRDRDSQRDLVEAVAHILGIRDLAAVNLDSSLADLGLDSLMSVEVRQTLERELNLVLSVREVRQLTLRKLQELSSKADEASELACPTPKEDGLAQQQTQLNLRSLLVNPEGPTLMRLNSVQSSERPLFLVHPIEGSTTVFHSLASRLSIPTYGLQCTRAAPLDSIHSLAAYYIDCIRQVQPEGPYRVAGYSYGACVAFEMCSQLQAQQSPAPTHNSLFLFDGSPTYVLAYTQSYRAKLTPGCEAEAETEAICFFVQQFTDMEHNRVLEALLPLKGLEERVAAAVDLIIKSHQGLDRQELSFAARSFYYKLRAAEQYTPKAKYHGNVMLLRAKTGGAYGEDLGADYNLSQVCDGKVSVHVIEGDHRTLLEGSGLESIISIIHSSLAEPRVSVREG
# Fatty acid synthase [11] = target: T5, Fatty acid synthase; assay: inhibition of human FAS-TE enzyme activity – biochemical, kinetic fluorescence intensity, dose response (AID 624326); assay type: functional;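 further: rate of fluorescence rise from hydrolysis of a fluorogenic O-methyl fluorescein ester substrate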
# [12] = target: T6, Calpain-2 catalytic subunit (Sus scrofa, UniProt P43367); assay: m-calpain protease blockers, concentration series – biochemical, fluorogenic peptide substrate, dose response (AID 1420); assay type: functional
# T6 sequence (P43367 whole entry): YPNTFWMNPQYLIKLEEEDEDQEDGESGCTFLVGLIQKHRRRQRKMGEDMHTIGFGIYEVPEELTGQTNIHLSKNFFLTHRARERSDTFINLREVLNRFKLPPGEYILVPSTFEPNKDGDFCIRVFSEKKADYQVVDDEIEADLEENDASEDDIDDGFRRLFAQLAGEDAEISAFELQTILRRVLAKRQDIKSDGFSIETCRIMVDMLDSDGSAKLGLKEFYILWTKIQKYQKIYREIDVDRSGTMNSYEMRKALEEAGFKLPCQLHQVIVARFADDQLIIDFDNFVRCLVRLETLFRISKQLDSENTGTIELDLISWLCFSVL
# [13] = target: T7, Histone-lysine N-methyltransferase NSD2 (Homo sapiens, UniProt O96028); assay type: biochemical
# T7 sequence (O96028 whole entry): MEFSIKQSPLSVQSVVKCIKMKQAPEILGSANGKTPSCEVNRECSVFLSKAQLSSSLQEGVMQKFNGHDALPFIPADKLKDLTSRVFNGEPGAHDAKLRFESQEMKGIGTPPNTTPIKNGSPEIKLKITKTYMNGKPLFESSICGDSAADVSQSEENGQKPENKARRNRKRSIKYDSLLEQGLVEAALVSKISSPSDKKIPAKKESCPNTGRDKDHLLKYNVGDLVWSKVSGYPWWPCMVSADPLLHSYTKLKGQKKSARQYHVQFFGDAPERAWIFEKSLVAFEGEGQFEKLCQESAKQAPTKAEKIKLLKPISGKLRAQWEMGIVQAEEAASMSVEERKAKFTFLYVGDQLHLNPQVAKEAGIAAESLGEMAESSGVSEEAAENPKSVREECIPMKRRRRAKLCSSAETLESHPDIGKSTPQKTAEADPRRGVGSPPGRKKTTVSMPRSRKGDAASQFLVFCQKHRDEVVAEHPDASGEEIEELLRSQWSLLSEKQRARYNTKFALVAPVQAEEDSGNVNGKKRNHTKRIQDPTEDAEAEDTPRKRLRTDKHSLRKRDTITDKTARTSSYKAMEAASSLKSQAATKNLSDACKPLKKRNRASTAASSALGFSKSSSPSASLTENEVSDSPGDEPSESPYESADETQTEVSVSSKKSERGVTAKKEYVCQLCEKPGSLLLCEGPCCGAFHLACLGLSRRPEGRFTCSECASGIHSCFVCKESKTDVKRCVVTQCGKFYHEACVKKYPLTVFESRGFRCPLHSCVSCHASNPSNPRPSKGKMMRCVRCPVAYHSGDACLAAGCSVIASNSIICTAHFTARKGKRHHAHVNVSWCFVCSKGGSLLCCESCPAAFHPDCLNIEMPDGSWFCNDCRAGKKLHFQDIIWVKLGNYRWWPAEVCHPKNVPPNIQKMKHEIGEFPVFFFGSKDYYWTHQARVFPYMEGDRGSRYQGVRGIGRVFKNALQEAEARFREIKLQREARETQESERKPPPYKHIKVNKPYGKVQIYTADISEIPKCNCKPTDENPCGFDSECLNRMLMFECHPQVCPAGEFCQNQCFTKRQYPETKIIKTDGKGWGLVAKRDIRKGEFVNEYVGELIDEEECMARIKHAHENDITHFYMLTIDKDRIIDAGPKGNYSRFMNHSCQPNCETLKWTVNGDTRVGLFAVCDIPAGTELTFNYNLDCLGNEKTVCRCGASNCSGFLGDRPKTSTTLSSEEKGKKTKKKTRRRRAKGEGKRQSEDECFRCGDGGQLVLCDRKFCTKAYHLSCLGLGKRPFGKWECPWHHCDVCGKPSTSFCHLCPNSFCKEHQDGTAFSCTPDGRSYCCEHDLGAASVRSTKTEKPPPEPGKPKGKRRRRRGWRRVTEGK
# [14] = target: T8, Heat shock factor protein 1 (Mus musculus, UniProt P38532); assay: enhancement of HSF1-driven luciferase signal – cell-based, NIH3T3, luminescence, dose retest, confirmation (AID 435004); assay type: functional;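 further: stress induced by proteasome inhibitor MG132 added 30 min after compound; luciferase reporter driven by HSF1 response element in NIH3T3 cells; actives raise luminescence as potentiators of the MG132 stress response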
# T8 sequence (P38532 whole entry): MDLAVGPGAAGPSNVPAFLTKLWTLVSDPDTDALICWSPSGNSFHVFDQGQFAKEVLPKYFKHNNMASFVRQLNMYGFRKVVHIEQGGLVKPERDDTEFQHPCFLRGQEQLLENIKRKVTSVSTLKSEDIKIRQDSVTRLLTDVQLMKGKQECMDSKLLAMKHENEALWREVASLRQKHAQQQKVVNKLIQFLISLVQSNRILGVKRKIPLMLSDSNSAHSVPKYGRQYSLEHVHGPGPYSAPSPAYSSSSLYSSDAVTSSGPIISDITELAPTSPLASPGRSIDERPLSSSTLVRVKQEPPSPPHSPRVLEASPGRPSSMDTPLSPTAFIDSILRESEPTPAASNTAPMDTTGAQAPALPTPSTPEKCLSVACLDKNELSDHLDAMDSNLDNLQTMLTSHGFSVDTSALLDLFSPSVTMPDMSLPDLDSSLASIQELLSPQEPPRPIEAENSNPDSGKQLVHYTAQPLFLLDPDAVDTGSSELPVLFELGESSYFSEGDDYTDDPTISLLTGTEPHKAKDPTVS
compound,measurement,setting,value
c1ccc2c(c1)COc1c3cc4c(cc3nn1-2)OCO4,EC50,[1],> 67.6 µM (inactive)
same,EC50,cells [2],> 67.6 µM (inactive)
CN1CCN(c2ccc(NC(=O)c3cc(S(N)(=O)=O)ccc3N3CCOCC3)cc2)CC1,AC50,[3],8.83 µM (active)
COc1c(C(=O)Nc2nnc(C3CC3)s2)csc1Cl,EC50,[1],> 67.6 µM (inactive)
same,EC50,cells [2],> 67.6 µM (inactive)
c1ccc(-c2csc(Nc3ccc4c(c3)OCO4)n2)cc1,EC50,[1],> 67.6 µM (inactive)
same,EC50,cells [2],> 67.6 µM (inactive)
O=C(Nc1nccs1)c1c(O)nc2c(c1O)CCCC2,EC50,[4],0.504 µM (active)
same,EC50,[5],0.999 µM (active)
same,EC50,H4,< 0.1 µM (active)
same,EC50,[6],0.446 µM (active)
same,EC50,[7],0.475 µM (active)
CC1OC(OC2C=C3CCC4C(CCC5(C)C(c6ccc(=O)oc6)CCC45O)C3(C)CC2)C(O)C(OC2OC(CO)C(O)C(O)C2O)C1O (stereo not drawn),IC50,Galanin receptor type 3,> 29.9 µM (inactive)
same,EC50,cells [8],> 29.9 µM (inactive)
same,AC50,Paired box protein Pax-8,< 0.26 µM (active)
C[C@H](NCCc1ccc(O)cc1)[C@H](O)c1ccc(O)cc1 [RITODRINE],IC50,Galanin receptor type 3,0.932 µM (active)
same,EC50,cells [8],> 29.9 µM (inactive)
FC(F)(F)c1cccc(/C=N/NC(=S)NC2CCCCC2)c1,IC50,Galanin receptor type 3,3.19 µM (active)
same,EC50,cells [8],> 29.9 µM (inactive)
Cc1cccc(C)c1Cn1c(C)c(C(=O)NCc2ccc([N+](=O)[O-])cc2)sc1=O,AC50,[9],20.5 µM (active)
same,IC50,Fatty acid synthase [10],6.75 µM (active)
same,IC50,Fatty acid synthase [11],4.48 µM (active)
O=C1c2cccc(Sc3ccccc3)c2C(=O)c2c(Sc3ccccc3)cccc21,IC50,[12],6.16 µM (not active)
same,AC50,[13],5.27 µM (active)
Nc1nn(-c2cccc(F)n2)cc1-c1ccc(Cl)cc1,EC50,[14],> 260 µM (inconclusive)
same,EC50,[1],> 67.6 µM (inactive)
same,EC50,cells [2],> 67.6 µM (inactive)
CCOC(=O)Cn1nnnc1C(C(C)C)N(Cc1cccs1)Cc1cc2cc(C)ccc2nc1O (stereo not drawn),IC50,Galanin receptor type 3,> 29.9 µM (inactive)
same,EC50,cells [8],> 29.9 µM (inactive)
O=C(Nc1ccccc1)N1CC=C(c2ccccc2)CC1,EC50,[4],0.376 µM (active)
same,EC50,H4,< 0.1 µM (active)
same,EC50,[6],0.237 µM (active)
same,EC50,[7],0.272 µM (active)
